US7138421B2, “Anti-androgenic pyrrolidines with tumor-inhibiting action” (Schring Aktiengesellschaft, priority 2003, dated 2006)
Read-outs that look alike come from different tables or passages of the source.

Experiments:
[1] = Pharmacokinetics in rats after intravenous and peroral administration; format: in vivo; details: rat, serum; for Vd / clearance: intravenous; for Vd: read-out: Distribution Volume Vdss; for clearance: read-out: Systemic Serum Clearance CL; for Tmax: read-out: Absorption Tmax
From the text: Model 4: Pharmacokinetics in Rats After Intravenous and Peroral Administration
The pharmacokinetic properties of the compounds according to the invention were studied in Examples 1: 4-[4,4-dimethyl-5-oxo-3-[8-(pyrrolidin-1-yl)octyl]-2-thioxoimidazolidin-1-yl]-2-(trifluoromethyl)benzonitrile and 11: 4-[3-[8-[(2S)-2-(hydroxymethyl)pyrrolidin-1-yl]octyl]-4,4-dimethyl-5-oxo-2-thioxoimidazolidin-1-yl]-2-(trifluoromethyl)benzonitrile.

LNCaP cells = assay: Inhibition of the proliferation of LNCaP cells (crystal violet assay); format: cell-based, human; details: Homo sapiens, LNCaP; for inhibition at 1 µM: read-out: % Inhibition at 1 μM, 1 μM test substance, compared to cell growth in the presence of 0.1 nmol of R1881; for IC50: read-out: IC50 inhibition of the proliferation of LNCaP cells, in the presence of 0.1 nmol of R1881, 7 to 8 days
androgen receptor = biological target: T1, androgen receptor (Homo sapiens, UniProt P10275, T878A); format: cell-based; details: LNCaP cells, 48 h, 10 μM, % of DMSO control
T1 construct: Destabilization of AR in LNCaP Cells by Test Substances; endogenous in cells; host or cells: LNCaP (human prostate cell line)
T1 sequence (P10275 1-920 T878A): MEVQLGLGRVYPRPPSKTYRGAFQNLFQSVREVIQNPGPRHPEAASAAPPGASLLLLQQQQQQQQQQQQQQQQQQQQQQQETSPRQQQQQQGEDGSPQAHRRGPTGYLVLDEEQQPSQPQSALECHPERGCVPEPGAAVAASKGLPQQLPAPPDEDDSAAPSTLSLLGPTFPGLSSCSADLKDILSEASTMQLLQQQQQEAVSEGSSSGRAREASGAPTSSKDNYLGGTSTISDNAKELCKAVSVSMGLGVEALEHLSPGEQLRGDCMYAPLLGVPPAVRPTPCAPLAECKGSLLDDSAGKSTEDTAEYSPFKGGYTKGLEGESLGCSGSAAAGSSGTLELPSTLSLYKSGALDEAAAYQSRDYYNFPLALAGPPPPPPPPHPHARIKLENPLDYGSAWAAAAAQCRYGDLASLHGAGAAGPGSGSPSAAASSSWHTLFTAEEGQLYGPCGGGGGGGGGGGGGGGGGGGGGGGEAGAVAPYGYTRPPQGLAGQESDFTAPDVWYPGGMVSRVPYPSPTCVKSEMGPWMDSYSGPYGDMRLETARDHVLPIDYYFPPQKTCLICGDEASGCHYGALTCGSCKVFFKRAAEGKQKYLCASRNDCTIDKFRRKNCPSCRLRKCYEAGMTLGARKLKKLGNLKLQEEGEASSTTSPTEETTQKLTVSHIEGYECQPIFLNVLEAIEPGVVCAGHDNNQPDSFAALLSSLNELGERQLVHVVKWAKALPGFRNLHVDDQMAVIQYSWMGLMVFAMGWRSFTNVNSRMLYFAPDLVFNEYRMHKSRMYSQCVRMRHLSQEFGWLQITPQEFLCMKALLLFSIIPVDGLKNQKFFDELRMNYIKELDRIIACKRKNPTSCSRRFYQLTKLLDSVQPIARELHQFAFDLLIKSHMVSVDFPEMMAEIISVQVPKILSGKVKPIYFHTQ

seminal vesicles = assay: Anti-androgenic action on testosterone-stimulated growth of the seminal vesicles of castrated mice; format: in vivo, mouse; details: 1× daily, 7 days, castrated mice with testosterone propionate
Experimental: The function and the size of accessory reproductive glands (prostate and seminal vesicles) depend on androgens. In castrated animals, a growth of these organs is induced by the administration of androgen. Simultaneous treatment with anti-androgens inhibits this growth in a dose-dependent manner. For the examination of test substances, the mice were castrated. On the same day, treatment with testosterone propionate (0.03 mg/mouse) and the test substances (1× daily 10 or 30 mg/kg p.o. in benzyl benzoate-castor oil or ethanol/peanut oil (10:90)) was formulated. The treatment was carried out over 7 days and at the end of the test, the weights of the seminal vesicles and prostate were determined. The inhibition of the seminal vesicle growth, in percent, was calculated in reference to the control groups (with and without testosterone). As a reference substance, cyproterone acetate (30 mg/kg s.c. and p.o.) was used.

[2] = iv, read-out: Half-Life i.v. T1/2 (converted)
[3] = po, read-out: Half-Life p.o. T1/2 (converted)

Which results are given for `CC1(C)C(=O)N(c2ccc(C#N)c(C(F)(F)F)c2)C(=S)N1CCCCCCCCN1CCC[C@H]1CO` [Example 11, 4-[3-[8-[(2S)-2-(Hydroxymethyl)pyrrolidin-1-yl]octyl]-4,4-dimethyl-5-oxo-2-thioxoimidazolidin-1-yl]-2-(trifluoromethyl)benzonitrile]?
Vd [1]: 11 L/kg; clearance [1]: 20 mL/min/kg; half-life [1, 2]: 342 min; bioavailability ([1]; po): 65%; Tmax ([1]; po): 7 h; half-life [1, 3]: 480 min; inhibition at 1 µM (LNCaP cells): 102%; IC50 (LNCaP cells): 13 nM; AR Content at 10 μM (androgen receptor): 50%; % Inhibition of MSB Growth (seminal vesicles; 30 mg/kg p.o.): 95%

What does the source list for `CC1(C)C(=O)N(c2ccc(C#N)c(C(F)(F)F)c2)C(=S)N1CCCCCCCCN1CCCC1` [Example 1, 4-[4,4-Dimethyl-5-oxo-3-[8-(pyrrolidin-1-yl)octyl]-2-thioxoimidazolidin-1-yl]-2-(trifluoromethyl)benzonitrile]?
Vd [1]: 37 L/kg; clearance [1]: 76 mL/min/kg; half-life [1, 2]: 336 min; bioavailability ([1]; po): 72%; Tmax ([1]; po): 5 h; half-life [1, 3]: 366 min; inhibition at 1 µM (LNCaP cells): 98%; IC50 (LNCaP cells): 45 nM; AR Content at 10 μM (androgen receptor): 63%; % Inhibition of MSB Growth (seminal vesicles; 10 mg/kg p.o.): 82%; % Inhibition of MSB Growth (seminal vesicles; 30 mg/kg p.o.): 99%
